Each structure is given as a SMILES string.

This experiment addresses human JAK1 (a.a. 837-1142). Description: In vitro JAK kinase assay (HTRF, phosphorylation of a biotinylated peptide), JAK1. The experiment is classed as biochemical. The note with it: measured at 1 mM ATP; JAK2 IC50 / JAK1 IC50. The method, then: Compounds herein were tested for inhibitory activity of JAK targets according to the following in vitro assay described in Park et al., Analytical Biochemistry 1999, 269, 94-104. The catalytic domains of human JAK1 (a.a. 837-1142), Jak2 (a.a. 828-1132) and Jak3 (a.a. 781-1124) with an N-terminal His tag were expressed using baculovirus in insect cells and purified. The catalytic activity of JAK1, JAK2 or JAK3 was assayed by measuring the phosphorylation of a biotinylated peptide. The phosphorylated peptide was detected by homogenous time resolved fluorescence (HTRF). […] Reactions were carried out at room temperature for 1 hr and then stopped with 20 μL 45 mM EDTA, 300 nM SA-APC, 6 nM Eu-Py20 in assay buffer (Perkin Elmer, Boston, Mass.). Binding to the Europium labeled antibody took place for 40 minutes and HTRF signal was measured on a Fusion plate reader (Perkin Elmer, Boston, Mass.).
A general note: Time-resolved FRET reads energy transfer from a long-lived donor to a nearby acceptor.
With `N#CCC1(n2cc(-c3ncnc4[nH]ccc34)cn2)CN(C2CCN(C(=O)c3c(F)cccc3C(F)(F)F)CC2)C1` [Example 45, {1-{1-[2-fluoro-6-(trifluoromethyl)benzoyl]piperidin-4-yl}-3-[4-(7H-pyrrolo[2,3-d]pyrimidin-4-yl)-1H-pyrazol-1-yl]azetidin-3-yl}acetonitrile], the “IC50 Ratio JAK2/JAK1” value is given as 3.1.

In the case of `N#CCC1(n2cc(-c3ncnc4[nH]ccc34)cn2)CN(C2CCN(C(=O)c3ccc(F)c(F)c3F)CC2)C1` [Example 46, {3-[4-(7H-pyrrolo[2,3-d]pyrimidin-4-yl)-1H-pyrazol-1-yl]-1-[1-(2,3,4-trifluorobenzoyl)piperidin-4-yl]azetidin-3-yl}acetonitrile], the “IC50 Ratio JAK2/JAK1” value is recorded as 6.3.

`N#CCC1(n2cc(-c3ncnc4[nH]ccc34)cn2)CN(C2CCN(C(=O)c3c(F)ccc(F)c3F)CC2)C1` [Example 47, {3-[4-(7H-pyrrolo[2,3-d]pyrimidin-4-yl)-1H-pyrazol-1-yl]-1-[1-(2,3,6-trifluorobenzoyl)piperidin-4-yl]azetidin-3-yl}acetonitrile]: the “IC50 Ratio JAK2/JAK1” value was 3.7.

On to `N#CCC1(n2cc(-c3ncnc4[nH]ccc34)cn2)CN(C2CCN(C(=O)c3cc(F)c(F)cc3F)CC2)C1` [Example 48, {3-[4-(7H-pyrrolo[2,3-d]pyrimidin-4-yl)-1H-pyrazol-1-yl]-1-[1-(2,4,5-trifluorobenzoyl)piperidin-4-yl]azetidin-3-yl}acetonitrile], for which the “IC50 Ratio JAK2/JAK1” value came out at 6.5.

Consider `N#CCC1(n2cc(-c3ncnc4[nH]ccc34)cn2)CN(C2CCN(C(=O)c3c(F)cc(F)cc3F)CC2)C1` [Example 49, {3-[4-(7H-pyrrolo[2,3-d]pyrimidin-4-yl)-1H-pyrazol-1-yl]-1-[1-(2,4,6-trifluorobenzoyl)piperidin-4-yl]azetidin-3-yl}acetonitrile], for which the “IC50 Ratio JAK2/JAK1” value amounted to 6.5.

For `COc1c(Br)cc(C(=O)N2CCC(N3CC(CC#N)(n4cc(-c5ncnc6[nH]ccc56)cn4)C3)CC2)cc1Br` [Example 50, {1-[1-(3,5-dibromo-4-methoxybenzoyl)piperidin-4-yl]-3-[4-(7H-pyrrolo[2,3-d]pyrimidin-4-yl)-1H-pyrazol-1-yl]azetidin-3-yl}acetonitrile], the “IC50 Ratio JAK2/JAK1” value was determined as 6.9.

As to `CN(C)c1ccc(C(=O)N2CCC(N3CC(CC#N)(n4cc(-c5ncnc6[nH]ccc56)cn4)C3)CC2)c(F)c1C#N` [Example 51, 3-[(4-{3-(cyanomethyl)-3-[4-(7H-pyrrolo[2,3-d]pyrimidin-4-yl)-1H-pyrazol-1-yl]azetidin-1-yl}piperidin-1yl)carbonyl]-6-(dimethylamino)-2-fluorobenzonitrile], the “IC50 Ratio JAK2/JAK1” value stood at 6.3.

Turning to `N#CCC1(n2cc(-c3ncnc4[nH]ccc34)cn2)CN(C2CCN(C(=O)c3ccc(C(F)(F)F)c(F)c3)CC2)C1` [Example 52, {1-{1-[3-fluoro-4-(trifluoromethyl)benzoyl]piperidin-4-yl}-3-[4-(7H-pyrrolo[2,3-d]pyrimidin-4-yl)-1H-pyrazol-1-yl]azetidin-3-yl}acetonitrile], the “IC50 Ratio JAK2/JAK1” value turned out to be 4.4.

For `N#CCC1(n2cc(-c3ncnc4[nH]ccc34)cn2)CN(C2CCN(C(=O)c3cc(Cl)cc(C(F)(F)F)n3)CC2)C1` [Example 53, {1-(1-{[4-chloro-6-(trifluoromethyl)pyridin-2-yl]carbonyl}piperidin-4-yl)-3-[4-(7H-pyrrolo[2,3-d]pyrimidin-4-yl)-1H-pyrazol-1-yl]azetidin-3-yl}acetonitrile], the “IC50 Ratio JAK2/JAK1” value was determined as 9.4.

As to `N#CCC1(n2cc(-c3ncnc4[nH]ccc34)cn2)CN(C2CCN(C(=O)c3cc(F)c(F)c(F)c3F)CC2)C1` [Example 54, {3-[4-(7H-pyrrolo[2,3-d]pyrimidin-4-yl)-1H-pyrazol-1-yl]-1-[1-(2,3,4,5-tetrafluorobenzoyl)piperidin-4-yl]azetidin-3-yl}acetonitrile], the “IC50 Ratio JAK2/JAK1” value was 9.1.

`COc1ccc(C(=O)N2CCC(N3CC(CC#N)(n4cc(-c5ncnc6[nH]ccc56)cn4)C3)CC2)cc1C#N` [Example 55, 5-[(4-{3-(cyanomethyl)-3-[4-(7H-pyrrolo[2,3-d]pyrimidin-4-yl)-1H-pyrazol-1-yl]azetidin-1-yl}piperidin-1-yl)carbonyl]-2-methoxybenzonitrile]: the “IC50 Ratio JAK2/JAK1” value came out at 7.5.

Consider `N#CCC1(n2cc(-c3ncnc4[nH]ccc34)cn2)CN(C2CCN(C(=O)c3c(F)c(F)cc(F)c3F)CC2)C1` [Example 56, {3-[4-(7H-pyrrolo[2,3-d]pyrimidin-4-yl)-1H-pyrazol-1-yl]-1-[1-(2,3,5,6-tetrafluorobenzoyl)piperidin-4-yl]azetidin-3-yl}acetonitrile], for which the “IC50 Ratio JAK2/JAK1” value was found to be 8.8.

As to `N#CCC1(n2cc(-c3ncnc4[nH]ccc34)cn2)CN(C2CCN(C(=O)c3ccnc(C(F)(F)F)c3)CC2)C1` [Example 57, (3-[4-(7H-pyrrolo[2,3-d]pyrimidin-4-yl)-1H-pyrazol-1-yl]-1-{1-[2-(trifluoromethyl)isonicotinoyl]piperidin-4-yl}azetidin-3-yl)acetonitrile], the “IC50 Ratio JAK2/JAK1” value stood at 3.3.

As for `N#CCC1(n2cc(-c3ncnc4[nH]ccc34)cn2)CN(C2CCN(C(=O)c3ccc(F)c(O)c3)CC2)C1` [Example 58, {1-[1-(4-fluoro-3-hydroxybenzoyl)piperidin-4-yl]-3-[4-(7H-pyrrolo[2,3-d]pyrimidin-4-yl)-1H-pyrazol-1-yl]azetidin-3-yl} acetonitrile], the “IC50 Ratio JAK2/JAK1” value was found to be 5.0.

Regarding `CN(C)c1ccc(C(=O)N2CCC(N3CC(CC#N)(n4cc(-c5ncnc6[nH]ccc56)cn4)C3)CC2)cc1C#N` [Example 59, 5-[(4-{3-(cyanomethyl)-3-[4-(7H-pyrrolo[2,3-d]pyrimidin-4-yl)-1H-pyrazol-1-yl]azetidin-1-yl}piperidin-1yl)carbonyl]-2-(dimethylamino)benzonitrile], the “IC50 Ratio JAK2/JAK1” value is listed as 4.6.

On to `CN(C)c1c(F)c(F)c(C(=O)N2CCC(N3CC(CC#N)(n4cc(-c5ncnc6[nH]ccc56)cn4)C3)CC2)c(F)c1F` [Example 60, {1-{1-[4-(dimethylamino)-2,3,5,6-tetrafluorobenzoyl]piperidin-4-yl}-3-[4-(7H-pyrrolo[2,3-d]pyrimidin-4-yl)-1H-pyrazol-1-yl]azetidin-3-yl}acetonitrile], for which the “IC50 Ratio JAK2/JAK1” value came to 1.8.

On to `N#CCC1(n2cc(-c3ncnc4[nH]ccc34)cn2)CN(C2CCN(C(=O)c3c(F)cncc3F)CC2)C1` [Example 61, {1-[1-(3,5-difluoroisonicotinoyl)piperidin-4-yl]-3-[4-(7H-pyrrolo[2,3-d]pyrimidin-4-yl)-1H-pyrazol-1-yl]azetidin-3-yl}acetonitrile], for which the “IC50 Ratio JAK2/JAK1” value is recorded as 4.2.

As to `N#CCC1(n2cc(-c3ncnc4[nH]ccc34)cn2)CN(C2CCN(C(=O)c3ccccc3F)CC2)C1` [Example 67, {1-[1-(2-fluorobenzoyl)piperidin-4-yl]-3-[4-(7H-pyrrolo[2,3-d]pyrimidin-4-yl)-1H-pyrazol-1-yl]azetidin-3-yl}acetonitrile], the “IC50 Ratio JAK2/JAK1” value is 4.7.

For `N#CCC1(n2cc(-c3ncnc4[nH]ccc34)cn2)CN(C2CCN(C(=O)c3sc(C(F)(F)F)cc3O)CC2)C1` [Example 71, {1-{1-[3-hydroxy-5-(trifluoromethyl)-2-thienylcarbonyl]piperidin-4-yl}-3-[4-(7H-pyrrolo[2,3-d]pyrimidin-4-yl)-1H-pyrazol-1-yl]azetidin-3-yl}acetonitrile], the “IC50 Ratio JAK2/JAK1” value was found to be 4.4.

For the molecule `COc1cscc1C(=O)N1CCC(N2CC(CC#N)(n3cc(-c4ncnc5[nH]ccc45)cn3)C2)CC1` [Example 72, {1-{1-[(4-methoxy-3-thienyl)carbonyl]piperidin-4-yl}-3-[4-(7H-pyrrolo[2,3-d]pyrimidin-4-yl)-1H-pyrazol-1-yl]azetidin-3-yl} acetonitrile], the “IC50 Ratio JAK2/JAK1” value worked out at 6.6.

As to `Cc1cc(C(=O)N2CCC(N3CC(CC#N)(n4cc(-c5ncnc6[nH]ccc56)cn4)C3)CC2)cs1` [Example 73, {1-{1-[(5-methyl-3-thienyl)carbonyl]piperidin-4-yl}-3-[4-(7H-pyrrolo[2,3-d]pyrimidin-4-yl)-1H-pyrazol-1-yl]azetidin-3-yl} acetonitrile], the “IC50 Ratio JAK2/JAK1” value is recorded as 4.2.

For the molecule `COc1c(C(=O)N2CCC(N3CC(CC#N)(n4cc(-c5ncnc6[nH]ccc56)cn4)C3)CC2)csc1Cl` [Example 74, {1-{1-[(5-chloro-4-methoxy-3-thienyl)carbonyl]piperidin-4-yl}-3-[4-(7H-pyrrolo[2,3-d]pyrimidin-4-yl)-1H-pyrazol-1-yl]azetidin-3-yl} acetonitrile], the “IC50 Ratio JAK2/JAK1” value worked out at 3.8.

`N#CCC1(n2cc(-c3ncnc4[nH]ccc34)cn2)CN(C2CCN(C(=O)c3ccsc3Br)CC2)C1` [Example 75, {1-{1-[(2-bromo-3-thienyl)carbonyl]piperidin-4-yl}-3-[4-(7H-pyrrolo[2,3-d]pyrimidin-4-yl)-1H-pyrazol-1-yl]azetidin-3-yl}acetonitrile]: the “IC50 Ratio JAK2/JAK1” value was found to be 3.4.

Turning to `N#CCC1(n2cc(-c3ncnc4[nH]ccc34)cn2)CN(C2CCN(C(=O)c3sccc3Cl)CC2)C1` [Example 76, {1-{1-[(3-chloro-2-thienyl)carbonyl]piperidin-4-yl}-3-[4-(7H-pyrrolo[2,3-d]pyrimidin-4-yl)-1H-pyrazol-1-yl]azctidin-3-yl}acetonitrile], the “IC50 Ratio JAK2/JAK1” value was determined as 5.5.

`N#CCC1(n2cc(-c3ncnc4[nH]ccc34)cn2)CN(C2CCN(C(=O)c3ccc(Cl)s3)CC2)C1` [Example 77, {1-{1-[(5-chloro-2-thienyl)carbonyl]piperidin-4-yl}-3-[4-(7H-pyrrolo[2,3-d]pyrimidin-4-yl)-1H-pyrazol-1-yl]azetidin-3-yl}acetonitrile]: the “IC50 Ratio JAK2/JAK1” value is 5.5.
